Results published in publication PMC6934184, “Selective DNA-PKcs inhibition extends the therapeutic index of localized radiotherapy and chemotherapy” (The Journal of Clinical Investigation, 2019).

Molecular target: T1, PAK6 (Homo sapiens, UniProt Q9NQU5)
T1 construct: purchased Thermo Fisher Scientific (Life Technologies) SelectScreen
Test: SelectScreen Z'LYTE
Assay type: biochemical
Summary of the method: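 NU5455 was profiled across the SelectScreen Broad panel of kinase activity and binding assays. Z'LYTE reactions such as CSF1R ran at apparent Km ATP, while the Adapta CAMK1 assay used ATP listed as 10. Values are given as percent.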

T1 sequence (Q9NQU5 whole entry): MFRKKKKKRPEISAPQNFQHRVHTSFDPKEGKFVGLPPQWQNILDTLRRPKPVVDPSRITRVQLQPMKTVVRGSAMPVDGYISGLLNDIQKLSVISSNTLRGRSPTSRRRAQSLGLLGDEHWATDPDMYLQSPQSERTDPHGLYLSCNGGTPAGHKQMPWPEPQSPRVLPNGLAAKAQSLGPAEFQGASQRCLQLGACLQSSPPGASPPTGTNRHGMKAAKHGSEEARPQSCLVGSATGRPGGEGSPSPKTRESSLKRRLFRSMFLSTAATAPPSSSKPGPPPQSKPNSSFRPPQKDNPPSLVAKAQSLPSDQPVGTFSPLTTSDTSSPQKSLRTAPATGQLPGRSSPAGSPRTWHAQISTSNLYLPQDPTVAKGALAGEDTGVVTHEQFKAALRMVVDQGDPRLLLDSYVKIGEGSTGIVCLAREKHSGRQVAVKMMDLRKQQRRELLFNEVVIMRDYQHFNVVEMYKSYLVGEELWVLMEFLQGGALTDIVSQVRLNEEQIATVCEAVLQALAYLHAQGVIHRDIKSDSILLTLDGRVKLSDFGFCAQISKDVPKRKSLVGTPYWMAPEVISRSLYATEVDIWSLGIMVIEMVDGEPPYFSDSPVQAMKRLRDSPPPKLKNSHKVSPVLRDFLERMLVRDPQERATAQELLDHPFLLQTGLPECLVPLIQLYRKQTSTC

Structure (SMILES): CN(C(=O)CN1CCOCC1)c1ccc2sc3c(-c4cccc5c(=O)cc(N6CC7CCC(C6)O7)oc45)cccc3c2c1 [NU5455]
- inhibition at 1 µM: 3%
